Drawing on PubChem BioAssay AID504359 (Broad Institute, 2011), this text covers caspase activation and AC10 for 21 compounds.

Active and inactive are the calls of the source.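 The calls were made as follows: active = fitted curve climbs past 10% caspase activation, relative to the positive control, at or below the top valid tested dose; inactive = the rest, including activity in the opposite direction.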

System in one experiment: not listed separately
In words: caspase-3/7 activation in A1-2A-tBid MEFs, dose response, orthogonal assay for A1 inhibitor project, cell-based, MEF A1-2A-tBid, luminescence, dry powder, set 2 (AID 504359). The settings on record: MEF A1-2A-tBid cells, caspase 3/7 luminescence, 3 h; at 35 µM (top of the series).
With `Cn1c(=O)c([N+](=O)[O-])c(Oc2ccccc2)c2ccccc21`, the caspase activation was 0.967% (inactive).

Consider `CN1C(=O)C(C)(C)N(Cc2ccccc2)c2ccccc21`, for which the caspase activation was 0.072% (inactive).

With `CCOCCCNc1c([N+](=O)[O-])c(=O)n(C)c2ccccc12`, the caspase activation is 0.513% (inactive).

Turning to `Cc1ccc(Nc2c([N+](=O)[O-])c(=O)n(C)c3ccccc23)cc1`, the caspase activation is -0.806% (inactive).

Consider `O=C(Oc1cccc(/C=N/Nc2nc(Nc3ccccc3)nc(N3CCOCC3)n2)c1)c1ccco1`, for which the caspase activation is 3.43% (inactive).

As to `O=c1oc2ccccc2c(Nc2cc(Cl)cc(Cl)c2)c1[N+](=O)[O-]`, the caspase activation was -1.39% (inactive).

Consider `CCSc1c([N+](=O)[O-])c(=O)oc2ccccc12`, for which the caspase activation is -3.21% (inactive).

For `Cc1ccc(Nc2c([N+](=O)[O-])c(=O)oc3ccccc23)cc1`, the caspase activation is 1.44% (inactive).

With `Cc1ccc(Sc2c([N+](=O)[O-])c(=O)oc3ccccc23)cc1`, the caspase activation is -3.75% (inactive).

Take `CCOC(=O)N1CCN(c2c([N+](=O)[O-])c(=O)n(C)c3ccccc23)CC1`: the caspase activation is -0.293% (inactive).

For `Cc1ccc(Sc2cc(=O)n(C)c3ccccc23)cc1`, the caspase activation is -7.35% (inactive).

As for `C/C1=C/C(=O)O[C@@H]2C[C@@H](CC[C@H](C)/C=C\CC1)O[C@@](O)(C1CSC(=O)N1)C2` (stereo partly specified), the caspase activation was 3.32% (inactive).

Take `O=c1oc2ccccc2c(N2CCCCC2)c1[N+](=O)[O-]`: the caspase activation was -2.24% (inactive).

As to `O=c1oc2ccccc2c(Cl)c1[N+](=O)[O-]`, the caspase activation was -6.09% (inactive).

In the case of `O=c1oc2ccccc2c(Sc2ccccc2)c1[N+](=O)[O-]`, the caspase activation is -5.14% (inactive).

`Cn1c(=O)c([N+](=O)[O-])c(Nc2ccc(Cl)cc2)c2ccccc21`: the caspase activation was -0.562% (inactive).

In the next experiment the test system is MEF A1-2A-tBid cells, caspase 3/7 luminescence, 3 h. Described as above.
Details: not given
As for `Cc1ccc(Sc2c([N+](=O)[O-])c(=O)n(C)c3ccccc23)cc1`, the AC10 was 7.45 µM.

For `Cn1c(=O)c([N+](=O)[O-])c(Cl)c2ccccc21`, the AC10 was 0.716 µM.

In the case of `O=[N+]([O-])c1cnc2ccccc2c1Sc1ccccc1`, the AC10 was 7.93 µM.

With `Cn1c(=O)c([N+](=O)[O-])c(-n2cnc3ccccc32)c2ccccc21`, the AC10 is 24.8 µM.

In the case of `Cc1ccc(Sc2c([N+](=O)[O-])cnc3ccccc23)cc1`, the AC10 is 5.49 µM.
